The values below come from patent publication US7605168B2 (Plexxikon, Inc., priority 2004, dated 2009).

The structures appear in SMILES notation.

What is called IC50 is the concentration that gives 50% inhibition.

In assay [1] the target is T1, PDE4B2: full-length human PDE4B2 isozyme (Homo sapiens, UniProt Q07343).
T1 construct: made in house; host or cells: baculovirus infected insect cells (pFastBacHT)
The assay can be described thus: PDE4 IC50 determination by Scintillation Proximity Assay (SPA), full-length PDE4B2. It counts as biochemical. Particulars: cell lysate, [3H]cAMP SPA. The protocol:
(§1) The enzyme was not purified from the cell lysates, so enzyme concentrations were not determined. Enzyme was stored in 50% glycerol at −20°.
(§2) IC50s were determined by Scintillation Proximity Assay (SPA). The principle of the assay is based on the fact that cAMP, the PDE4 substrate, binds weakly to Yittrium Silicate SPA beads, whereas AMP, the product of PDE4 hydrolysis binds strongly. Thus, the extent of PDE4 hydrolysis of a sample of [^3H]cAMP can be measured because only the [^3H]AMP produced by PDE4 hydrolysis will bind to the SPA beads and produce a scintillation signal.
(§3) In addition to the compound dilutions, each assay plate contained control wells with 1 μl of DMSO (to define 0% enzyme inhibition) or 1 μl of 200 μM roflumilast (to define 100% enzyme inhibition). Using a Beckman FX robot, 10 μl of [^3H] cAMP (Amersham TRK559) at […] in assay buffer (50 mM Tris, pH 7.5; 8.3 mM MgCl; 1.7 mM EGTA; 0.01% BSA) was transferred to each assay well. Next, 10 μl of PDE4 enzyme in assay buffer was added and the plates were shaken for 30 s. at 1000 rpm to start the cAMP hydrolysis reaction. The concentrations of enzyme used were: PDE4B, 80 ng/ml; PDE4D, 4 ng/ml; PDE4B2, 2.5 μl of 50% glycerol stock/ml; PDE4D5 0.083 μl of 50% glycerol stock/ml. Assay plates were covered and incubated for 30 min. at 30° C. Reactions were stopped by robotic addition of 10 μl of 5 mg/ml SPA beads (Amersham RPNQ0013) in 18 mM ZnSO4. The assay plates were covered with clear plastic film, centrifuged for 1 min. at 1000 RPM to settle the SPA beads, and counted using a Wallac TriLux scintillation counter. IC50's were calculated from the raw assay data by non-linear regression curve fitting using the Assay Explorer software package from MDL.
(Scintillation proximity formats need no separation of bound from free tracer.)

In assay [2] the target is T2, PDE4D5: full-length human PDE4D5 isozyme (Homo sapiens, UniProt Q08499).
T2 construct: made in house; host or cells: baculovirus infected insect cells (pFastBacHT)
Nature of the assay: PDE4 IC50 determination by Scintillation Proximity Assay (SPA), full-length PDE4D5. The format is biochemical. Particulars: cell lysate, [3H]cAMP SPA. The protocol: as §1, §2, §3

Assay [3] relates to TNF-α release from whole blood cultures stimulated with LPS. Nature of the assay: IC50 by TNF alpha production upon stimulation of whole blood cultures with LPS. Particulars: human whole blood (buffy coat) culture, 100 ng/ml LPS, 4 hours; read-out: h TNFα IC50. The format is cell-based. The protocol:
Compounds were assayed to generate IC50 numbers based on the inhibition of TNF-α release from whole blood cultures, using the following assay protocol (see Table 5 for compounds tested and results). Inhibition of PDE4B results in the inhibition of TNF-α release by whole blood cultures stimulated with lipopolysaccharide (LPS). The measurement of TNF-α release was used to assess compounds as PDE4B inhibitors.
Compounds were provided in DMSO at 20 mM and 2 μl per well was added to one row of a dilution plate. Added 98 μl of RPMI 1640 media with 2.5% heat inactivated FBS to each well containing compound. The same media with 2% DMSO was prepared and 60 μl was added to each of the empty wells in the dilution plate. The compound was serially diluted 1:3 (30 μl to 60 μl of media) for a total of 8 concentrations per compound. Wells were also prepared with 50 μM roflumilast and piclamilast as 100% inhibition controls, and 2% DMSO in media was used as 0% inhibition control. A 20 μl aliquot of each sample was transferred to an assay plate in duplicate.
Human buffy coat was obtained from the Stanford Medical School Blood Center and diluted with 7 volumes of RPMI 1640 media with 1% penicillin/streptomycin and 2.5% heat inactivated FBS. A 160 μl aliquot of the diluted blood was added to each well of the assay plates, mixed and incubated for 1 hour at 37° C. in 5% CO2. LPS (Sigma catalog number L2637) that had been diluted to 1 mg/ml in PBS and stored as 20 μl aliquots at −20° C. was thawed and diluted 1000× to 1 μg/ml. A 20 μl aliquot of this was added to each sample (final concentration 100 ng/ml LPS) after the 1 hour incubation. A background sample was prepared without addition of LPS as well. The samples were mixed on a shaker for one minute at 900 RPM and incubated for 4 hours at 37° C. in 5% CO2. The plates were then put on a shaker for one minute at 900 RPM, followed by centrifuging at 100×g for 10 minutes, deceleration setting of 5. The top 75 μl of supernatant was carefully pipetted to a new plate and frozen at −20° C.
A 50 μl aliquot of incubation buffer (Biosource International Immunoassay Kit:Human TNF-α catalog number KHC3011) was added to each well of a plate coated with monoclonal antibody specific for hTNF-α (Biosource kit). The supernatant blood samples were thawed and a 50 μl aliquot along with 50 μl of diluent buffer (Biosource kit) were added to incubation buffer and the samples were incubated for 2 hours at room temperature. The samples were washed 4 times with 300 μl/well wash buffer (Biosource kit). A 100 μl aliquot of biotinylated anti-TNFalpha (Biosource kit) was added and the samples incubated for 1 hour at room temperature. The samples were washed 4 times with 300 μl/well wash buffer. A 100 μl aliquot of Streptavidin-HRP solution (BioSource kit) was added and the samples incubated for 30 minutes at room temperature. The samples were washed 4 times with 300 μl/well wash buffer. A 100 μl aliquot of Chromagen (Biosource kit) was added and the samples incubated in the dark for 30 minutes. A 100 μl aliquot of stop solution (2N H2SO4) was added to each sample and samples were read at 450 nm on a WallacVictor for 0.1 sec/well.

Assay [4] deals with T3, PDE4B: catalytic domain of human PDE4B from S152-S528 (Homo sapiens, UniProt Q07343).
T3 construct: The catalytic domain of human PDE4B from S152-S528; His6 (N, cleaved yes); thrombin cleavage site (N, cleaved yes); made in house; host or cells: E. coli BL21 (DE3) RIL
The assay can be described thus: PDE4 IC50 determination by Scintillation Proximity Assay (SPA), PDE4B catalytic domain. It counts as biochemical. Particulars: [3H]cAMP SPA, 30 min at 30° C. The protocol:
as §2
Enzyme was stored in 50% glycerol at −20°.
as §3

T1 sequence (Q07343 with tags, fused parts or gaps isoform Q07343-2): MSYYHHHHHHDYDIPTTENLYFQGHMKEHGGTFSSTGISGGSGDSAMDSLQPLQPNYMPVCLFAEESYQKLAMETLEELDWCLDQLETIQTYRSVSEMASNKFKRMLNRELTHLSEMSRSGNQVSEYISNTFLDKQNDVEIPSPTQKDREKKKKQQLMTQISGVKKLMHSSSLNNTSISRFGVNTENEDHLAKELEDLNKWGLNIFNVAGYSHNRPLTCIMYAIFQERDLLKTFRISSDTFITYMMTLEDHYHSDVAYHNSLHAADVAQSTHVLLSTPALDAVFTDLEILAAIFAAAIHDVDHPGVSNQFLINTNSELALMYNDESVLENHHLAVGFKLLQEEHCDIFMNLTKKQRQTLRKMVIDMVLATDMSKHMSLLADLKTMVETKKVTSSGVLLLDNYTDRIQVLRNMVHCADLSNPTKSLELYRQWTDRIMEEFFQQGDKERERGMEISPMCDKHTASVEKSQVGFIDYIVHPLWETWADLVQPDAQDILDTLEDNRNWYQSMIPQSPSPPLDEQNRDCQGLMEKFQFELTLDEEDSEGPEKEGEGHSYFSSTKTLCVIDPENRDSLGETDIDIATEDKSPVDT
T2 sequence (Q08499 with tags, fused parts or gaps isoform Q08499-6): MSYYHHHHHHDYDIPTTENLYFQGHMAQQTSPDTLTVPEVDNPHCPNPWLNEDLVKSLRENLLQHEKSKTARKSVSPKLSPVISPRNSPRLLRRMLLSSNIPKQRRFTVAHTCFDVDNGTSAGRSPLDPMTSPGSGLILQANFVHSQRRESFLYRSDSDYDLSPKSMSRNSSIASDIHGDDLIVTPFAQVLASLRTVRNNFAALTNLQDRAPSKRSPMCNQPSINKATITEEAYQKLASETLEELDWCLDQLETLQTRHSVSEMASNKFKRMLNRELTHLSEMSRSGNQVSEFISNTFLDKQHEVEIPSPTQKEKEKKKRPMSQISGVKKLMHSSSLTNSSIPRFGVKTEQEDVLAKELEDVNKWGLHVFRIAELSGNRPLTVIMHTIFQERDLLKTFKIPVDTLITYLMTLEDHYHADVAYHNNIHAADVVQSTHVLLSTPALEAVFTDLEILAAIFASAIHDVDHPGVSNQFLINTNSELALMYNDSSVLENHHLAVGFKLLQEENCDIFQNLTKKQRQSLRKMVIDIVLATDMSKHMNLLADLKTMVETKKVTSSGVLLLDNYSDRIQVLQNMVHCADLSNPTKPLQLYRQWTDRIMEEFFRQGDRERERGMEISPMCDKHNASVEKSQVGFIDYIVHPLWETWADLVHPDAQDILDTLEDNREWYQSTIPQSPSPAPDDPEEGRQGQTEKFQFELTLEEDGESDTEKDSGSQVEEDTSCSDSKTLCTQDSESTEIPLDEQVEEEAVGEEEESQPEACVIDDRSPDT
T3 sequence (Q07343 324-700): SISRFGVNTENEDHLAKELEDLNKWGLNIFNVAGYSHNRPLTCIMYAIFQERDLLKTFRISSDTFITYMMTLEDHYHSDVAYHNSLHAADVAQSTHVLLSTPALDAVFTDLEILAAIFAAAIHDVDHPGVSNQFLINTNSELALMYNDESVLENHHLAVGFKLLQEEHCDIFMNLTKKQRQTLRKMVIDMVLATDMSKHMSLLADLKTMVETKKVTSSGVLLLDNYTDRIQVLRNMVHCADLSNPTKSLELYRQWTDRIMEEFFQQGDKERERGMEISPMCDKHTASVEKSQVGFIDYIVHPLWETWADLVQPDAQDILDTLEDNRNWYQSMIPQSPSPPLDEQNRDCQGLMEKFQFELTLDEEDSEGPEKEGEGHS

Regarding `COc1ccc(-c2cccc3[nH]ccc23)cc1OC` [Compound 128, 4-(3,4-Dimethoxy-phenyl)-1H-indole], the IC50 in assay [1] is less than 10 µM; in assay [2] it was less than 10 µM; in assay [3], not above 10 µM.
For the compound `CCOc1ccc2ccccc2c1C(=O)n1cc(-c2ccc(OC)c(OC3CCCC3)c2)c2cccnc21` [Compound 119, [3-(3-Cyclopentyloxy-4-methoxy-phenyl)-pyrrolo[2,3-b]pyridin-1-yl]-(2-ethoxy-naphthalen-1-yl)-methanone], the IC50 was less than 10 µM in assay [1], less than 10 µM in assay [2] and not above 10 µM in assay [3].
For the compound `COc1ccc(-c2cccc3c2ccn3S(=O)(=O)c2cccc3cccnc23)cc1OC` [Compound 131, 8-[4-(3,4-Dimethoxy-phenyl)-indole-1-sulfonyl]-quinoline], the figures for the IC50 in assay [1], in assay [2] and in assay [3] were less than 10 µM, less than 10 µM and not above 10 µM, respectively.
For the compound `COc1ccc(-c2cn(S(=O)(=O)c3cccc4cccnc34)c3ccc(Cl)cc23)cc1OC` [Compound 93, 8-[3-(3,4-Dimethoxy-phenyl)-5-chloro-indole-1-sulfonyl]-quinoline], the IC50 in assay [1] was less than 10 µM; in assay [2], less than 10 µM; in assay [3], not above 10 µM.
In the case of `COc1ccc(-c2ccc3[nH]ccc3c2)cc1OC` [Compound 129, 5-(3,4-Dimethoxy-phenyl)-1H-indole], the IC50 is less than 10 µM in assay [1], less than 10 µM in assay [2] and not above 10 µM in assay [3].
Consider `COc1ccc(-c2ccc3c(ccn3S(=O)(=O)c3cccc4cccnc34)c2)cc1OC` [Compound 130, 8-[5-(3,4-Dimethoxy-phenyl)-indole-1-sulfonyl]-quinoline], for which the IC50 in assay [1] was less than 10 µM; in assay [2], less than 10 µM; in assay [3] it was not above 10 µM.
Take `CCOc1ccc2ccccc2c1C(=O)n1cc(-c2cccc(C(N)=O)c2)c2cccnc21` [Compound 121, 3-[1-(2-Ethoxy-naphthalene-1-carbonyl)-1H-pyrrolo[2,3-b]pyridin-3-yl]-benzamide]: the IC50 was less than 10 µM in assay [1], less than 10 µM in assay [2] and not above 10 µM in assay [3].
As for `CCOc1ccc2ccccc2c1C(=O)n1cc(-c2cccc(NS(C)(=O)=O)c2)c2cccnc21` [Compound 122, N-{3-[1-(2-Ethoxy-naphthalene-1-carbonyl)-1H-pyrrolo[2,3-b]pyridin-3-yl]-phenyl}-methanesulfonamide], the IC50 in assay [1] is less than 10 µM; in assay [2] it was less than 10 µM; in assay [3], not above 10 µM.
Consider `COc1ccc(-c2cnc3c(ccn3S(=O)(=O)c3ccccc3)c2)cc1OC` [Compound 132, 1-Benzenesulfonyl-5-(3,4-dimethoxy-phenyl)-1H-pyrrolo[2,3-b]pyridine], for which the IC50 in assay [1] was less than 10 µM; in assay [2] it was less than 10 µM; in assay [3], not above 10 µM.
On to `COc1ccc(-c2cnc3[nH]cc(C#Cc4cccc(C(=O)O)c4)c3c2)cc1OC` [Compound 140, 3-[5-(3,4-Dimethoxy-phenyl)-1H-pyrrolo[2,3-b]pyridin-3-ylethynyl]-benzoic acid], for which the IC50 is less than 10 µM in assay [1], less than 10 µM in assay [2] and more than 10 µM in assay [3].
As to `CCOc1ccc2ccccc2c1C(=O)n1cc(-c2ccc(S(C)(=O)=O)cc2)c2cccnc21` [Compound 84, (2-Ethoxy-naphthalen-1-yl)-[3-(4-methanesulfonyl-phenyl)-pyrrolo[2,3-b]pyridin-1-yl]-methanone], the half-maximal inhibitory concentration (IC50) was less than 10 µM in assay [1], less than 10 µM in assay [2] and not above 10 µM in assay [3].
Turning to `CCOc1ccc2ccccc2c1C(=O)n1cc(-c2cccc(S(C)(=O)=O)c2)c2cccnc21` [Compound 86, (2-Ethoxy-naphthalen-1-yl)-[3-(3-methanesulfonyl-phenyl)-pyrrolo[2,3-b]pyridin-1-yl]-methanone], the IC50 in assay [1] was less than 10 µM; in assay [2], less than 10 µM; in assay [3] it was not above 10 µM.
Turning to `COc1ccc(-c2cn(C(=O)c3ccc(C#N)cc3)c3ncccc23)cc1OC` [Compound 106, 4-[3-(3,4-Dimethoxy-phenyl)-pyrrolo[2,3-b]pyridine-1-carbonyl]-benzonitrile], the IC50 in assay [1] was less than 10 µM; in assay [2], less than 10 µM; in assay [3], not above 10 µM.
In the case of `COC(=O)c1cccc(C#Cc2c[nH]c3ncc(-c4ccc(OC)c(OC)c4)cc23)c1` [Compound 139, 3-[5-(3,4-Dimethoxy-phenyl)-1H-pyrrolo[2,3-b]pyridin-3-ylethynyl]-benzoic acid methyl ester], the IC50 in assay [1] was less than 10 µM; in assay [2], less than 10 µM; in assay [3] it was more than 10 µM.
On to `COc1ccc(-c2cnc3[nH]cc(C#Cc4ccccc4)c3c2)cc1OC` [Compound 138, 5-(3,4-Dimethoxy-phenyl)-3-phenylethynyl-1H-pyrrolo[2,3-b]pyridine], for which the half-inhibitory concentration (IC50) in assay [1] is less than 10 µM; in assay [2], less than 10 µM; in assay [3], not above 10 µM.
As to `COc1ccc(-c2cn(S(=O)(=O)c3ccccc3)c3ccccc23)cc1OC1CCCC1` [Compound 99, 1-Benzenesulfonyl-3-(3-cyclopentyloxy-4-methoxy-phenyl)-1H-indole], the concentration for half-maximal inhibition (IC50) in assay [1], in assay [2] and in assay [4] was less than 10 µM throughout.
For `CCOc1ccc2ccccc2c1C(=O)n1cc(-c2cccc(C(=O)OCc3ccccc3)c2)c2cccnc21` [Compound 87, 3-[1-(2-Ethoxy-naphthalene-1-carbonyl)-1H-pyrrolo[2,3-b]pyridin-3-yl]-benzoic acid benzyl ester], the concentration for half-maximal inhibition (IC50) in assay [1] is less than 10 µM; in assay [2], less than 10 µM; in assay [3], not above 10 µM.
As to `COc1ccc(NC(=O)n2cc(-c3ccc(OC)c(OC)c3)c3cccnc32)cc1` [Compound 39, 3-(3,4-Dimethoxy-phenyl)-pyrrolo[2,3-b]pyridine-1-carboxylic acid (4-methoxy-phenyl)-amide], the IC50 is less than 10 µM in assay [1], more than 10 µM in assay [2] and less than 10 µM in assay [4].
